In ChEMBL document CHEMBL6114980, “Single or double lipid-modified ultra-short antimicrobial peptides for treating infections caused by resistant bacteria” (Eur J Med Chem, 2025):
≈ marks a conversion by molar mass, not a printed value. Calls of active or inactive are those of the source. No cut-off for these calls is given here. Peptide text beside a SMILES is read from it. * marks the point of attachment. Myristoyl = CCCCCCCCCCCCCC(=O)*; Lauroyl = CCCCCCCCCCCC(=O)*; Octanoyl = CCCCCCCC(=O)*

Columns and labels:
Staphylococcus aureus [1] = assay: Antibacterial activity against Staphylococcus aureus ATCC 25923 assessed as reduction in bacterial growth incubated for 18 to 24 hrs by broth microdilution method; type: functional; conditions: time 18-24 hrs
Acinetobacter baumannii [2] = assay: Antibacterial activity against Acinetobacter baumannii ATCC 19606 assessed as reduction in bacterial growth incubated for 18 to 24 hrs by broth microdilution method; type: functional; conditions: time 18-24 hrs
[3] = system: Staphylococcus epidermidis; assay: Antibacterial activity against Staphylococcus epidermidis ATCC 12228 assessed as reduction in bacterial growth incubated for 18 to 24 hrs by broth microdilution method; type: functional; conditions: time 18-24 hrs
Bacillus subtilis = assay: Antibacterial activity against Bacillus subtilis ATCC 23857 assessed as reduction in bacterial growth incubated for 18 to 24 hrs by broth microdilution method; type: functional; conditions: time 18-24 hrs
Klebsiella pneumoniae = assay: Antibacterial activity against Klebsiella pneumoniae ATCC 700603 assessed as reduction in bacterial growth incubated for 18 to 24 hrs by broth microdilution method; type: functional; conditions: time 18-24 hrs
Pseudomonas aeruginosa [4] = assay: Antibacterial activity against Pseudomonas aeruginosa ATCC 27853 assessed as reduction in bacterial growth incubated for 18 to 24 hrs by broth microdilution method; type: functional; conditions: time 18-24 hrs
Escherichia coli [5] = assay: Antibacterial activity against Escherichia coli ATCC 25922 assessed as reduction in bacterial growth incubated for 18 to 24 hrs by broth microdilution method; type: functional; conditions: time 18-24 hrs
Enterococcus faecalis = assay: Antibacterial activity against Enterococcus faecalis ATCC 29212 assessed as reduction in bacterial growth incubated for 18 to 24 hrs by broth microdilution method; type: functional; conditions: time 18-24 hrs
Cell membrane [6] = assay: Induction of cytoplasmic membrane depolarization in Escherichia coli assessed as increase in fluorescence intensity at 0.5 to 2 times MIC measured for 10 mins by DiSC3-5 dye based fluorescence assay
Cell membrane [7] = assay: Induction of cytoplasmic membrane depolarization in Staphylococcus aureus assessed as increase in fluorescence intensity at 0.5 to 4 times MIC measured for 1 mins by DiSC3-5 dye based fluorescence assay
Escherichia coli [8] = assay: Antibacterial activity against Escherichia coli 850 assessed as reduction in bacterial growth incubated for 18 to 24 hrs by broth microdilution method; type: functional; conditions: time 18-24 hrs
Pseudomonas aeruginosa [9] = assay: Antibacterial activity against Pseudomonas aeruginosa 6434N assessed as reduction in bacterial growth incubated for 18 to 24 hrs by broth microdilution method; type: functional; conditions: time 18-24 hrs
Staphylococcus aureus [10] = assay: Antibacterial activity against Staphylococcus aureus 113 assessed as reduction in bacterial growth incubated for 18 to 24 hrs by broth microdilution method; type: functional; conditions: time 18-24 hrs
Acinetobacter baumannii [11] = assay: Antibacterial activity against Acinetobacter baumannii 5444 assessed as reduction in bacterial growth incubated for 18 to 24 hrs by broth microdilution method; type: functional; conditions: time 18-24 hrs
Staphylococcus aureus [12] = assay: Antibacterial activity against Staphylococcus aureus 125 assessed as reduction in bacterial growth incubated for 18 to 24 hrs by broth microdilution method; type: functional; conditions: time 18-24 hrs
Staphylococcus aureus [13] = assay: Antibacterial activity against Staphylococcus aureus 794 assessed as reduction in bacterial growth incubated for 18 to 24 hrs by broth microdilution method; type: functional; conditions: time 18-24 hrs
Pseudomonas aeruginosa [14] = assay: Antibacterial activity against Pseudomonas aeruginosa 124 assessed as reduction in bacterial growth incubated for 18 to 24 hrs by broth microdilution method; type: functional; conditions: time 18-24 hrs
Staphylococcus aureus [15] = assay: Antibacterial activity against methicillin-resistant Staphylococcus aureus ATCC 33591 assessed as reduction in bacterial growth incubated for 18 to 24 hrs by broth microdilution method; type: functional; conditions: time 18-24 hrs
Escherichia coli [16] = assay: Antibacterial activity against Escherichia coli 780 assessed as reduction in bacterial growth incubated for 18 to 24 hrs by broth microdilution method; type: functional; conditions: time 18-24 hrs
Staphylococcus aureus [17] = assay: Antibacterial activity against methicillin-resistant Staphylococcus aureus 75 assessed as reduction in bacterial growth incubated for 18 to 24 hrs by broth microdilution method; type: functional; conditions: time 18-24 hrs
Acinetobacter baumannii [18] = assay: Antibacterial activity against Acinetobacter baumannii 92359 assessed as reduction in bacterial growth incubated for 18 to 24 hrs by broth microdilution method; type: functional; conditions: time 18-24 hrs
Staphylococcus aureus [19] = assay: Antibacterial activity against methicillin resistant Staphylococcus aureus infected in male BALB/c mouse model of skin wound infection assessed as appearance of intact structure of stratum corneum at 2 mg/kg, ip measured after 10 days post infection; type: functional, organism-based; conditions: time 10.0 day
Staphylococcus aureus [20] = assay: Antibacterial activity against methicillin resistant Staphylococcus aureus infected in male BALB/c mouse model of skin wound infection assessed as healthy development of hair follicles at 2 mg/kg, ip measured after 10 days post infection; type: functional, organism-based; conditions: time 10.0 day
Staphylococcus aureus [21] = assay: Antibacterial activity against methicillin resistant Staphylococcus aureus infected in male BALB/c mouse model of skin wound infection assessed as healthy development of sebaceous glands at 2 mg/kg, ip measured after 10 days post infection; type: functional, organism-based; conditions: time 10.0 day
Staphylococcus aureus [22] = assay: Induction of cell membrane disruption in Staphylococcus aureus assessed as PI uptake at 2 to 4 times MIC measured after 120 mins by PI staining based flow cytometry analysis; type: functional, organism-based
Staphylococcus aureus [23] = assay: Induction of morphological changes in Staphylococcus aureus assessed as cell aggregation adhesion at 2 times MIC measured after 120 mins by SEM analysis; type: functional, organism-based
Staphylococcus aureus [24] = assay: Bactericidal activity against Staphylococcus aureus 25923 assessed as eradication of bacteria at 2 times MIC measured after 6 hrs by time-kill assay; type: functional, organism-based
Staphylococcus aureus [25] = assay: Antibacterial activity against methicillin resistant Staphylococcus aureus infected in male BALB/c mouse model of skin wound infection assessed as reduction in wound area at 2 mg/kg, ip measured after 10 days post infection relative to control; type: functional; parameters: scale not given: the % may be the effect or the level left; conditions: time 10 day

SMILES	MIC (Staphylococcus aureus [1])	MIC (Acinetobacter baumannii [2])	MIC [3]	MIC (Bacillus subtilis)	MIC (Klebsiella pneumoniae)	MIC (Pseudomonas aeruginosa [4])	MIC (Escherichia coli [5])	MIC (Enterococcus faecalis)	MIC (Escherichia coli [8])	MIC (Pseudomonas aeruginosa [9])	MIC (Staphylococcus aureus [10])	MIC (Acinetobacter baumannii [11])	MIC (Staphylococcus aureus [12])	MIC (Staphylococcus aureus [13])	MIC (Pseudomonas aeruginosa [14])	MIC (Staphylococcus aureus [15])	MIC (Escherichia coli [16])	MIC (Staphylococcus aureus [17])	MIC (Acinetobacter baumannii [18])	other results
CCCCCCCCCCCC(=O)NCCCC[C@H](NC(=O)CCCCCCCCCCC)C(=O)N[C@@H](CCCCN)C(=O)N[C@@H](CCCCN)C(=O)N[C@@H](Cc1c[nH]c2ccccc12)C(=O)N[C@@H](Cc1c[nH]c2ccccc12)C(N)=O (Lauroyl-K(Lauroyl)KKWW-NH2)	128 µM (≈ 146 µg/mL)	128 µM (≈ 146 µg/mL)	128 µM (≈ 146 µg/mL)	128 µM (≈ 146 µg/mL)	128 µM (≈ 146 µg/mL)	128 µM (≈ 146 µg/mL)	128 µM (≈ 146 µg/mL)	128 µM (≈ 146 µg/mL)	–	–	–	–	–	–	–	–	–	–	–	–
CCCCCCCCCCCCCC(=O)NCCCC[C@H](NC(=O)CCCCCCCCCCCCC)C(=O)N[C@@H](CCCCN)C(=O)N[C@@H](CCCCN)C(=O)N[C@@H](Cc1c[nH]c2ccccc12)C(=O)N[C@@H](Cc1c[nH]c2ccccc12)C(N)=O (Myristoyl-K(Myristoyl)KKWW-NH2)	128 µM (≈ 153 µg/mL)	128 µM (≈ 153 µg/mL)	128 µM (≈ 153 µg/mL)	128 µM (≈ 153 µg/mL)	128 µM (≈ 153 µg/mL)	128 µM (≈ 153 µg/mL)	128 µM (≈ 153 µg/mL)	128 µM (≈ 153 µg/mL)	–	–	–	–	–	–	–	–	–	–	–	–
CCCCCCCCCCCCCC(=O)N[C@@H](CCCCN)C(=O)N[C@@H](CCCCN)C(=O)N[C@@H](Cc1c[nH]c2ccccc12)C(=O)N[C@@H](Cc1c[nH]c2ccccc12)C(N)=O (Myristoyl-KKWW-NH2)	4 µM (≈ 3.42 µg/mL)	32 µM (≈ 27.4 µg/mL)	4 µM (≈ 3.42 µg/mL)	2 µM (≈ 1.71 µg/mL)	32 µM (≈ 27.4 µg/mL)	16 µM (≈ 13.7 µg/mL)	32 µM (≈ 27.4 µg/mL)	8 µM (≈ 6.85 µg/mL)	–	–	–	–	–	–	–	–	–	–	–	Activity (Cell membrane [6]): Active; Compound Showed Similar Effect As Quality Control Polymyxin B; Activity (Cell membrane [7]): Active
CCCCCCCC(=O)N[C@@H](CCCCN)C(=O)N[C@@H](CCCCN)C(=O)N[C@@H](Cc1c[nH]c2ccccc12)C(=O)N[C@@H](Cc1c[nH]c2ccccc12)C(N)=O (Octanoyl-KKWW-NH2)	32 µM (≈ 24.7 µg/mL)	128 µM (≈ 98.8 µg/mL)	32 µM (≈ 24.7 µg/mL)	4 µM (≈ 3.09 µg/mL)	128 µM (≈ 98.8 µg/mL)	16 µM (≈ 12.4 µg/mL)	64 µM (≈ 49.4 µg/mL)	128 µM (≈ 98.8 µg/mL)	–	–	–	–	–	–	–	–	–	–	–	–
CC(=O)OCC1=C(C(=O)O)N2C(=O)[C@@H](NC(=O)Cc3cccs3)[C@H]2SC1 [CEPHALOTHIN]	1 µM (≈ 0.396 µg/mL)	32 µM (≈ 12.7 µg/mL)	1 µM (≈ 0.396 µg/mL)	1 µM (≈ 0.396 µg/mL)	16 µM (≈ 6.34 µg/mL)	16 µM (≈ 6.34 µg/mL)	1 µM (≈ 0.396 µg/mL)	4 µM (≈ 1.59 µg/mL)	8 µM (≈ 3.17 µg/mL)	16 µM (≈ 6.34 µg/mL)	8 µM (≈ 3.17 µg/mL)	128 µM (≈ 50.7 µg/mL)	1 µM (≈ 0.396 µg/mL)	128 µM (≈ 50.7 µg/mL)	128 µM (≈ 50.7 µg/mL)	128 µM (≈ 50.7 µg/mL)	1 µM (≈ 0.396 µg/mL)	128 µM (≈ 50.7 µg/mL)	128 µM (≈ 50.7 µg/mL)	–
COc1cccc(OC)c1C(=O)N[C@@H]1C(=O)N2[C@@H]1SC(C)(C)[C@@H]2C(=O)O [METHICILLIN]	1 µM (≈ 0.38 µg/mL)	128 µM (≈ 48.7 µg/mL)	4 µM (≈ 1.52 µg/mL)	2 µM (≈ 0.761 µg/mL)	128 µM (≈ 48.7 µg/mL)	128 µM (≈ 48.7 µg/mL)	128 µM (≈ 48.7 µg/mL)	128 µM (≈ 48.7 µg/mL)	128 µM (≈ 48.7 µg/mL)	128 µM (≈ 48.7 µg/mL)	8 µM (≈ 3.04 µg/mL)	128 µM (≈ 48.7 µg/mL)	2 µM (≈ 0.761 µg/mL)	128 µM (≈ 48.7 µg/mL)	128 µM (≈ 48.7 µg/mL)	128 µM (≈ 48.7 µg/mL)	128 µM (≈ 48.7 µg/mL)	128 µM (≈ 48.7 µg/mL)	128 µM (≈ 48.7 µg/mL)	–
CN[C@@H]1[C@H](O[C@H]2[C@H](O[C@H]3[C@H](O)[C@@H](O)[C@H](N=C(N)N)[C@@H](O)[C@@H]3N=C(N)N)O[C@@H](C)[C@]2(O)C=O)O[C@@H](CO)[C@H](O)[C@H]1O [STREPTOMYCIN]	1 µM (≈ 0.582 µg/mL)	64 µM (≈ 37.2 µg/mL)	1 µM (≈ 0.582 µg/mL)	1 µM (≈ 0.582 µg/mL)	1 µM (≈ 0.582 µg/mL)	2 µM (≈ 1.16 µg/mL)	4 µM (≈ 2.33 µg/mL)	16 µM (≈ 9.31 µg/mL)	32 µM (≈ 18.6 µg/mL)	2 µM (≈ 1.16 µg/mL)	128 µM (≈ 74.4 µg/mL)	128 µM (≈ 74.4 µg/mL)	128 µM (≈ 74.4 µg/mL)	128 µM (≈ 74.4 µg/mL)	4 µM (≈ 2.33 µg/mL)	64 µM (≈ 37.2 µg/mL)	128 µM (≈ 74.4 µg/mL)	64 µM (≈ 37.2 µg/mL)	128 µM (≈ 74.4 µg/mL)	–
CN[C@H](CC(C)C)C(=O)N[C@H]1C(=O)N[C@@H](CC(N)=O)C(=O)N[C@H]2C(=O)N[C@H]3C(=O)N[C@H](C(=O)N[C@H](C(=O)O)c4cc(O)cc(O)c4-c4cc3ccc4O)[C@H](O)c3ccc(c(Cl)c3)Oc3cc2cc(c3O[C@@H]2O[C@H](CO)[C@@H](O)[C@H](O)[C@H]2O[C@H]2C[C@](C)(N)[C@H](O)[C@H](C)O2)Oc2ccc(cc2Cl)[C@H]1O [VANCOMYCIN]	–	–	–	–	–	–	–	–	–	–	–	–	–	–	–	–	–	–	–	Activity (Staphylococcus aureus [19]): Active; Activity (Staphylococcus aureus [20]): Active; Activity (Staphylococcus aureus [21]): Active; Activity (Staphylococcus aureus [22]): inactive; Activity (Staphylococcus aureus [23]): inactive; Activity (Staphylococcus aureus [24]): inactive; Activity (Staphylococcus aureus [25]): <20%
